Literature values, collected in patent US20200093158A1, “COMPOSITIONS AND COMBINATIONS FOR USE AS FOOD SUPPLEMENTS FOR ANIMALS” (OmniGen Research, LLC, priority 2014, published 2020).

Columns and labels:
[1] = 71.5 parts per million in diet for 8 weeks; 72 hours ammonia at 0.02, 0.2, 2 ppm (not at 20 ppm); vs control shrimp
[2] = system: larvae of common carp; conditions: 1.76 parts per million of NH3, after 24 hours
[3] = system: turbot (Scophthalmus maximus) juveniles

SMILES | survival rates under ammonia exposure [1] | mortality [2] | physiological disturbances ([3]; adapted small turbot, up to 0.4-0.5 parts per million) | mortalities ([3]; turbot juveniles, 4-6 weeks, up to 0.4 parts per million unionized ammonia, 16.5-17.5° C., pH 7.92-8.03)
CC1=C(/C=C/C(C)=C/C=C/C(C)=C/C=C/C=C(C)/C=C/C=C(C)/C=C/C2=C(C)C(=O)[C@@H](O)CC2(C)C)C(C)(C)C[C@H](O)C1=O [astaxanthin] | higher | – | – | –
N [NH3, ammonia] | – | 50% | no major physiological disturbances | no mortalities
